Data taken from US11279714B2, “Anti-infective compounds” (priority 2014, dated 2022).
Values after ≈ are worked out from the molar mass of the structure shown.

Assays:
[1] = tested on: M. tuberculosis H37Rv expressing the green fluorescent protein (H37Rv-GFP); test: microbe, parasite or virus in culture; assay type: cell-based; details: Mycobacterium tuberculosis, H37RV, 120 h; read-out: QUM (MIC50)
[2] = tested on: Raw 264.7 cells infected with H37Rv-GFP; test: microbe, parasite or virus in culture; assay type: cell-based, M. tuberculosis; details: for MIC50: Mycobacterium tuberculosis, H37RV, 120 h, read-out: QIM (MIC50)

Q: `CS(=O)(=O)O.CS(=O)(=O)O.O=C(Nc1ccc(-c2ccc(F)cn2)cc1)c1cc2sc(NCCN3CCOCC3)nc2s1` [Compound 360] was tested. Which MIC50 [1] did it give?
A: The MIC50 was under 1 µM.

Q: And the “QIM (MIC50, uM)” value [2]?
A: Its value is “+++ (+++ indicates <1 uM)”.

Q: How did the MIC50 [1] turn out when `CN(CC(O)C(F)(F)F)c1nc2sc(C(=O)Nc3ccc(-c4ccc(F)cn4)cc3)cc2s1` (centres unmarked) [Compound 317] was run?
A: Its MIC50 is 1 to 20 µM (≈ 0.497 to 9.93 µg/mL).

Q: And the MIC50 [2]?
A: The MIC50 was under 1 µM.

Q: With `O=C(Nc1ccc(N2CCC(Oc3ccc(F)cc3)CC2)cc1)c1cc2sc(N3CCOCC3)nc2s1` [Compound 220] as the compound, how does the MIC50 [1] read?
A: Its MIC50 is over 20 µM.

Q: And the MIC50 [2]?
A: The MIC50 was under 1 µM.

Q: `CN1CCCC(Nc2nc3sc(C(=O)Nc4ccc(F)cc4)cc3s2)C1` (centres unmarked) [Compound 311] was tested. Which MIC50 [1] did it give?
A: The MIC50 was over 20 µM.

Q: And the MIC50 [2]?
A: Its MIC50 is 1 to 20 µM (≈ 0.391 to 7.81 µg/mL).

Q: Which results are given for `Cc1nc2cc(NC(=O)c3sc4nc(N5CCOCC5)sc4c3OCc3ccccc3)ccc2o1` [Compound 185]?
A: MIC50 [1]: > 20 µM; MIC50 [2]: > 20 µM

Q: `CN(C)C(=O)C1CCN(c2nc3sc(C(=O)Nc4ccc(-c5ccc(C(F)(F)F)nc5)cc4)cc3s2)CC1` [Compound 209] was tested. Which MIC50 [1] did it give?
A: Its MIC50 is under 1 µM.

Q: And the MIC50 [2]?
A: Its MIC50 is under 1 µM.

Q: Which results are given for `CN(C)C(=O)C1CCN(c2nc3sc(C(=O)Nc4ccc5oc(-c6ccc(Cl)cc6)nc5c4)cc3s2)CC1` [Compound 214]?
A: MIC50 [1]: > 20 µM; MIC50 [2]: < 1 µM

Q: With `O=C(Nc1ccc(CN2CCN(c3ccc(F)cc3)CC2)cc1)c1cc2sc(N3CCOCC3)nc2s1` [Compound 211] as the compound, how does the MIC50 [1] read?
A: The MIC50 was under 1 µM.

Q: What about the MIC50 [2] of the same compound?
A: The MIC50 was under 1 µM.

Q: Which results are given for `COc1ccc(CNc2nc3sc(C(=O)Nc4ccc5oc(C)nc5c4)cc3s2)cc1` [Compound 239]?
A: MIC50 [1]: 1 to 20 µM (≈ 0.451 to 9.01 µg/mL); MIC50 [2]: < 1 µM

Q: For `O=C(Nc1ccc(N2CCC(O)(Cc3ccccc3)CC2)cc1)c1cc2sc(NCCN3CCOCC3)nc2s1` [Compound 294], which MIC50 [1] is on record?
A: Its MIC50 is over 20 µM.

Q: What about the MIC50 [2] of the same compound?
A: Its MIC50 is under 1 µM.

Q: How did the MIC50 [1] turn out when `Cc1nc2cc(NC(=O)c3cc4sc(N(C)CC(O)C(F)(F)F)nc4s3)ccc2o1` (centres unmarked) [Compound 261] was run?
A: The MIC50 was under 1 µM.

Q: What about the MIC50 [2] of the same compound?
A: Its MIC50 is under 1 µM.

Q: What does the source list for `Cn1ccc(-c2ccc(NC(=O)c3cc4sc(N5CCNCC5)nc4s3)cc2)n1` [Compound 343]?
A: MIC50 [1]: 1 to 20 µM (≈ 0.425 to 8.49 µg/mL); MIC50 [2]: < 1 µM

Q: For `CC(C)(C)CC(=O)NC1CCN(c2nc3sc(C(=O)Nc4ccc(-c5ccc(F)cn5)cc4)cc3s2)CC1` [Compound 349], which MIC50 [1] is on record?
A: The MIC50 was over 20 µM.

Q: And the MIC50 [2]?
A: Its MIC50 is under 1 µM.

Q: What does the source list for `O=C(Nc1ccc(F)cc1)c1cc2sc(N3CCC(C(=O)c4ccc(Cl)cc4)CC3)nc2s1` [Compound 241]?
A: MIC50 [1]: > 20 µM; MIC50 [2]: < 1 µM

Q: Which MIC50 [1] does the source give for `Cc1nc2cc(NC(=O)c3cc4sc(N5CCC(C(O)c6ccc(Cl)cc6)CC5)nc4s3)ccc2o1` (centres unmarked) [Compound 206] here?
A: Its MIC50 is over 20 µM.

Q: And the MIC50 [2]?
A: Its MIC50 is under 1 µM.

Q: What does the source list for `O=C(Nc1ccc(-c2ccc(F)nc2)cc1)c1cc2sc(NCCN3CCCCC3)nc2s1` [Compound 329]?
A: MIC50 [1]: 1 to 20 µM (≈ 0.482 to 9.63 µg/mL); MIC50 [2]: < 1 µM

Q: For `CN(C)C(=O)C1CCN(c2nc3sc(C(=O)Nc4ccc(-c5ccc(F)cn5)cc4)cc3s2)CC1` [Compound 268], which MIC50 [2] is on record?
A: Its MIC50 is under 1 µM.

Q: What does the source list for `O=C(Nc1ccc(N2CCC(Oc3ccc(F)cc3)CC2)cc1)c1cc2sc(NCCN3CCOCC3)nc2s1` [Compound 295]?
A: MIC50 [1]: > 20 µM; MIC50 [2]: > 20 µM

Q: `O=C(Nc1ccc(-c2ccc(F)cn2)cc1)c1cc2sc(NCCCN3CCOCC3)nc2s1` [Compound 328] was tested. Which MIC50 [1] did it give?
A: Its MIC50 is under 1 µM.

Q: And the MIC50 [2]?
A: Its MIC50 is under 1 µM.

Q: Which MIC50 [2] does the source give for `CN(CCO)c1nc2sc(C(=O)Nc3ccc(-c4n[nH]cc4Cl)cc3)cc2s1` [Compound 281] here?
A: Its MIC50 is 1 to 20 µM (≈ 0.434 to 8.68 µg/mL).

Q: With `CN1CCN(CCNc2nc3sc(C(=O)Nc4ccc(-c5ccc(F)cn5)cc4)cc3s2)CC1` [Compound 325] as the compound, how does the MIC50 [1] read?
A: Its MIC50 is 1 to 20 µM (≈ 0.497 to 9.93 µg/mL).

Q: And the MIC50 [2]?
A: The MIC50 was under 1 µM.

Q: `O=C(Nc1ccc(F)cc1)c1cc2sc(N3CCC(C(O)c4ccc(Cl)cc4)CC3)nc2s1` (centres unmarked) [Compound 247] was tested. Which MIC50 [1] did it give?
A: The MIC50 was 1 to 20 µM (≈ 0.502 to 10 µg/mL).

Q: What about the MIC50 [2] of the same compound?
A: Its MIC50 is under 1 µM.

Q: For `Cc1ccc(-c2ccc(NC(=O)c3cc4sc(N5CCNCC5)nc4s3)cc2)nc1` [Compound 346], which MIC50 [1] is on record?
A: Its MIC50 is 1 to 20 µM (≈ 0.436 to 8.71 µg/mL).

Q: What about the MIC50 [2] of the same compound?
A: Its MIC50 is under 1 µM.

Q: `CCN(CC)c1nc2sc(C(=O)Nc3ccc(OC)cc3)cc2s1` [Compound 287] was tested. Which MIC50 [1] did it give?
A: Its MIC50 is under 1 µM.

Q: What about the MIC50 [2] of the same compound?
A: The MIC50 was under 1 µM.

Q: `Cc1nnc(-c2ccc(NC(=O)c3cc4sc(N5CCC(C(=O)N(C)C)CC5)nc4s3)cc2)o1` [Compound 184] was tested. Which MIC50 [1] did it give?
A: Its MIC50 is over 20 µM.

Q: What about the MIC50 [2] of the same compound?
A: The MIC50 was over 20 µM.

Q: How did the MIC50 [1] turn out when `O=C(O)c1ccc(NC(=O)c2cc3nc(N4CCCCC4)sc3s2)cc1` [Compound 19] was run?
A: Its MIC50 is 1 to 20 µM (≈ 0.387 to 7.75 µg/mL).

Q: What about the MIC50 [2] of the same compound?
A: The MIC50 was over 20 µM.

Q: What does the source list for `CN(CCCO)c1nc2sc(C(=O)Nc3ccc(-c4ccc(F)nc4)cc3)cc2s1` [Compound 291]?
A: MIC50 [1]: < 1 µM; MIC50 [2]: < 1 µM

Q: How did the MIC50 [1] turn out when `Cc1nc2cc(NC(=O)c3cc4sc(NC5CCN(C)CC5)nc4s3)ccc2o1` [Compound 356] was run?
A: The MIC50 was over 20 µM.

Q: `CC(C)(C)CC(=O)NC1CCN(c2nc3sc(C(=O)Nc4ccc(F)cc4)cc3s2)CC1` [Compound 304] was tested. Which MIC50 [1] did it give?
A: The MIC50 was over 20 µM.

Q: And the MIC50 [2]?
A: Its MIC50 is under 1 µM.

Q: What does the source list for `Cc1ccc(-c2ccc(NC(=O)c3cc4sc(N5CCC(C(=O)N(C)C)CC5)nc4s3)cc2)nc1` [Compound 217]?
A: MIC50 [1]: 1 to 20 µM (≈ 0.506 to 10.1 µg/mL); MIC50 [2]: < 1 µM

Q: Which results are given for `CN(C)C(=O)CC1CCN(c2nc3sc(C(=O)Nc4ccc(F)cc4)cc3s2)CC1` [Compound 331]?
A: MIC50 [1]: < 1 µM; MIC50 [2]: < 1 µM

Q: `Cc1ccc(-c2ccc(NC(=O)c3cc4sc(N5CCC(C(=O)N(C)C)CC5)nc4s3)cc2)cn1` [Compound 204] was tested. Which MIC50 [1] did it give?
A: The MIC50 was under 1 µM.

Q: What about the MIC50 [2] of the same compound?
A: The MIC50 was under 1 µM.

Q: `CN(C)C(=O)CC1CCN(c2nc3sc(C(=O)Nc4ccc(-c5ccc(F)nc5)cc4)cc3s2)C1` (centres unmarked) [Compound 350] was tested. Which MIC50 [1] did it give?
A: Its MIC50 is under 1 µM.

Q: What about the MIC50 [2] of the same compound?
A: Its MIC50 is under 1 µM.

Q: With `Cc1nc2cc(NC(=O)c3cc4sc(N5CCC(CC(=O)N(C)C)CC5)nc4s3)ccc2o1` [Compound 307] as the compound, how does the MIC50 [1] read?
A: The MIC50 was under 1 µM.

Q: What about the MIC50 [2] of the same compound?
A: The MIC50 was under 1 µM.
